ChEMBL document CHEMBL1250537, “Synthesis and biological evaluation of diastereoisomerically pure N,O-nucleosides” (Bioorg Med Chem, 2010)

Legend:
Type in all cases: functional, cell-based
Jurkat = test: Cytotoxicity against human Jurkat cells after 72 hrs by MTT assay
[1] = Cytotoxicity against human LCL cells after 72 hrs by MTT assay
JIYOYE = test: Cytotoxicity against human EBV-positive Jijoye cells after 72 hrs by MTT assay

Structure (SMILES) | IC50 (Jurkat) | IC50 [1] | IC50 (JIYOYE)
CN1O[C@@H](n2ccc(N)nc2=O)C[C@H]1c1ccccc1 (relative stereo) | > 100 µM | > 100 µM | > 100 µM
CN1O[C@@H](n2ccc(N)nc2=O)C[C@@H]1c1ccccc1 (relative stereo) | > 100 µM | > 100 µM | > 100 µM
Cc1cn([C@@H]2C[C@H](c3ccccc3)N(C)O2)c(=O)[nH]c1=O (relative stereo) | 76.6 µM | 82.5 µM | 60.9 µM
Cc1cn([C@@H]2C[C@H](c3ccccc3)N(C(C)(C)C)O2)c(=O)[nH]c1=O (relative stereo) | 72.2 µM | 87.1 µM | 68.8 µM
CC(C)(C)N1O[C@H](n2cc(F)c(=O)[nH]c2=O)C[C@@H]1c1ccccc1 (relative stereo) | 60.6 µM | 67.5 µM | 63.1 µM
Cc1cn([C@@H]2C[C@H](c3ccco3)N(C(C)(C)C)O2)c(=O)[nH]c1=O (relative stereo) | > 100 µM | > 100 µM | > 100 µM
Cc1cn([C@@H]2C[C@H](c3ccccc3Cl)N(C)O2)c(=O)[nH]c1=O (relative stereo) | 8.8 µM | 52.6 µM | 28.5 µM
Cc1cn([C@@H]2C[C@H](c3ccccc3)N(Cc3ccccc3)O2)c(=O)[nH]c1=O (relative stereo) | 19.3 µM | 55.2 µM | 36.9 µM
